Measurements published in publication PMC6437697 (Journal of Medicinal Chemistry, 2019).

Experiments:
Assay in all cases: KINOMEscan
Type in all cases: binding
[1] = molecular target: T1, ABL1(Q252H)-nonphosphorylated (Homo sapiens, UniProt P00519, Q252H); details: read-out: % control activity remaining
T1 construct: purchased Eurofins DiscoverX KINOMEscan

CDC2L2 = molecular target: T2, CDC2L2 (Homo sapiens, UniProt Q9UQ88); details: read-out: % control activity remaining
T2 construct: purchased Eurofins DiscoverX KINOMEscan
T2 sequence (Q9UQ88 1-783): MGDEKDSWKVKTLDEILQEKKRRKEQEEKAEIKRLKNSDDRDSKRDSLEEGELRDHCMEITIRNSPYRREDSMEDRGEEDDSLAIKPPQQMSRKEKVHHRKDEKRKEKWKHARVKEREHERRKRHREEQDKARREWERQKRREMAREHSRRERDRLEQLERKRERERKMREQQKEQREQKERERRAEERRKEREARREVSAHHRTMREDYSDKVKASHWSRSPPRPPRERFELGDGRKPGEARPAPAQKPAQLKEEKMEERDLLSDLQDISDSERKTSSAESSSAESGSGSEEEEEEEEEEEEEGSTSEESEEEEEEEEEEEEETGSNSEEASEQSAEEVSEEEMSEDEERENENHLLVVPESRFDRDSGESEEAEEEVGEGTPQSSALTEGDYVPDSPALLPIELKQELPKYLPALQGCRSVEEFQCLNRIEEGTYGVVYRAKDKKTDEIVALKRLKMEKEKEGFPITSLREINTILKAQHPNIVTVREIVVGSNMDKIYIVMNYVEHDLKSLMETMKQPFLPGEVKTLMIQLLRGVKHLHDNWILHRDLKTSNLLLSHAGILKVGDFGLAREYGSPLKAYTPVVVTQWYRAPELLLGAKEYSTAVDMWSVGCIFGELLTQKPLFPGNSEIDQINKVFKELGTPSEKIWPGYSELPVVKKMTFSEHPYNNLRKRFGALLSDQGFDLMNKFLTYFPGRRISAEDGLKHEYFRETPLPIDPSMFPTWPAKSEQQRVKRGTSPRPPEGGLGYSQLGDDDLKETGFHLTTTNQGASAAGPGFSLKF

EGFR(S752-I759del) = molecular target: T3, EGFR(S752-I759del) (Homo sapiens, UniProt P00533, DEL752-759); details: read-out: % control activity remaining
T3 construct: purchased Eurofins DiscoverX KINOMEscan

LATS1 = molecular target: T4, LATS1 (Homo sapiens, UniProt O95835); details: read-out: % control activity remaining
T4 construct: purchased Eurofins DiscoverX KINOMEscan
T4 sequence (O95835 1-1130): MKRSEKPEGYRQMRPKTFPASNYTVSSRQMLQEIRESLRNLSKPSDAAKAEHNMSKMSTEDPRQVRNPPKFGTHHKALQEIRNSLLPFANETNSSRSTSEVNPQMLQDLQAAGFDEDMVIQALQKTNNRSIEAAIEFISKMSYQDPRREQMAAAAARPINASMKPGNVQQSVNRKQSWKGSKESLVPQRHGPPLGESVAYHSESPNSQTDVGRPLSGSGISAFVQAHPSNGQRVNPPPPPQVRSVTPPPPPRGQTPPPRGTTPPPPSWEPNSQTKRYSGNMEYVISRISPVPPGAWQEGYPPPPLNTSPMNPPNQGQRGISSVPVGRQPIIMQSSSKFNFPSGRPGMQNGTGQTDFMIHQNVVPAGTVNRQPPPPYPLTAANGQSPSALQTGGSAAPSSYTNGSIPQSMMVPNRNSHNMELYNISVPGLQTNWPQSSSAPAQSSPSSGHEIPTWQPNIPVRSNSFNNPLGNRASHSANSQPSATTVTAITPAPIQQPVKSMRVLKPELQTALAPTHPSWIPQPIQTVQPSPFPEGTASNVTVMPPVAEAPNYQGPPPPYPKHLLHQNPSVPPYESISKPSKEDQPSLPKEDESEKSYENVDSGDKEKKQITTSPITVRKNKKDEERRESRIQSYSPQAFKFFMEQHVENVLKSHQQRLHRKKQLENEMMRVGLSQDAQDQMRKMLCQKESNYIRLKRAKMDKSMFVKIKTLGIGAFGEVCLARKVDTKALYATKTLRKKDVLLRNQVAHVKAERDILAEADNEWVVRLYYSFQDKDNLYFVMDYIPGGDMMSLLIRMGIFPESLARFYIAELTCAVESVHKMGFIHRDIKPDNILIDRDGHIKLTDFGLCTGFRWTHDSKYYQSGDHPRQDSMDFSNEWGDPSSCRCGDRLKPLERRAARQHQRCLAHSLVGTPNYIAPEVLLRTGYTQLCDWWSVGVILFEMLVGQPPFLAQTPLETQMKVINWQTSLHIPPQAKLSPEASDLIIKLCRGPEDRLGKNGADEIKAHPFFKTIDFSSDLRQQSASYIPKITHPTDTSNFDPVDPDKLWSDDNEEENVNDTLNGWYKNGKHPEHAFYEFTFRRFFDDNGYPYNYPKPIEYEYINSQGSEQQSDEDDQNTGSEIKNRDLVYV

PCTK2 = molecular target: T5, PCTK2 (Homo sapiens, UniProt Q00537); details: for remaining binding at 1 µM: read-out: % control activity remaining
T5 construct: purchased Eurofins DiscoverX KINOMEscan

PKN1 = molecular target: T6, PKN1 (Homo sapiens, UniProt Q16512); details: read-out: % control activity remaining
T6 construct: purchased Eurofins DiscoverX KINOMEscan

PRKCE = molecular target: T7, PRKCE (Homo sapiens, UniProt Q02156); details: read-out: % control activity remaining
T7 construct: purchased Eurofins DiscoverX KINOMEscan
T7 sequence (Q02156 1-737): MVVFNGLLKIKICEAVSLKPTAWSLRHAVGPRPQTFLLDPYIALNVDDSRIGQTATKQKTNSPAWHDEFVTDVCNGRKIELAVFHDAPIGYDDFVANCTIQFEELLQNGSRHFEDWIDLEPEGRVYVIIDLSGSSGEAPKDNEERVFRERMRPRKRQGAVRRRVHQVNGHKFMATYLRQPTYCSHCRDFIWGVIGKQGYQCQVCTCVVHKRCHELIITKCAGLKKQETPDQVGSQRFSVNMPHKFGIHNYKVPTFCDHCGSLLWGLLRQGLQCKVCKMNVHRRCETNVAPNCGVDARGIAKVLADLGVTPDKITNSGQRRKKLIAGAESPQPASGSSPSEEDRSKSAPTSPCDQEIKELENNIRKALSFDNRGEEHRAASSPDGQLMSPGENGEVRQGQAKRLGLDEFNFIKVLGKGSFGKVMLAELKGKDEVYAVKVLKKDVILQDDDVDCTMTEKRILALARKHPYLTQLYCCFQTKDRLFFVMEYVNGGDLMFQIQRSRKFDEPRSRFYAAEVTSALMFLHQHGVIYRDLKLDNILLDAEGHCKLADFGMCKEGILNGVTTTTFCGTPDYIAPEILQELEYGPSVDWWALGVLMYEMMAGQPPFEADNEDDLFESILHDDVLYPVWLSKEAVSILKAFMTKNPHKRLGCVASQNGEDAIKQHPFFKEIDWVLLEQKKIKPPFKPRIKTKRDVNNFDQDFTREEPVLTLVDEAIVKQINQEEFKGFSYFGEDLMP

YSK1 = molecular target: T8, YSK1 (Homo sapiens, UniProt O00506); details: read-out: % control activity remaining
T8 construct: purchased Eurofins DiscoverX KINOMEscan
T8 sequence (O00506 whole entry): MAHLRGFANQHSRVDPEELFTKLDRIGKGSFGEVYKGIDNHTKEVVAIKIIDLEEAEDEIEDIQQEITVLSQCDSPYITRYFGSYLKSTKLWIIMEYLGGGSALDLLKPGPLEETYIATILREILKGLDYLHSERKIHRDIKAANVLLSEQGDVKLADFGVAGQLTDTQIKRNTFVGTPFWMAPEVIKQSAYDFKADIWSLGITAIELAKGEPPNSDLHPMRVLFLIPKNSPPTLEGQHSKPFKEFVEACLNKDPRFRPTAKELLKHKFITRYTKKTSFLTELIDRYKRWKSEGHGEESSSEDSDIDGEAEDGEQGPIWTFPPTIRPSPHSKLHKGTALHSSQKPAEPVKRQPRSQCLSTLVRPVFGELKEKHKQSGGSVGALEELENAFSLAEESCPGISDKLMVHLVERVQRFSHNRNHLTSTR

T6 sequence (Q16512 whole entry): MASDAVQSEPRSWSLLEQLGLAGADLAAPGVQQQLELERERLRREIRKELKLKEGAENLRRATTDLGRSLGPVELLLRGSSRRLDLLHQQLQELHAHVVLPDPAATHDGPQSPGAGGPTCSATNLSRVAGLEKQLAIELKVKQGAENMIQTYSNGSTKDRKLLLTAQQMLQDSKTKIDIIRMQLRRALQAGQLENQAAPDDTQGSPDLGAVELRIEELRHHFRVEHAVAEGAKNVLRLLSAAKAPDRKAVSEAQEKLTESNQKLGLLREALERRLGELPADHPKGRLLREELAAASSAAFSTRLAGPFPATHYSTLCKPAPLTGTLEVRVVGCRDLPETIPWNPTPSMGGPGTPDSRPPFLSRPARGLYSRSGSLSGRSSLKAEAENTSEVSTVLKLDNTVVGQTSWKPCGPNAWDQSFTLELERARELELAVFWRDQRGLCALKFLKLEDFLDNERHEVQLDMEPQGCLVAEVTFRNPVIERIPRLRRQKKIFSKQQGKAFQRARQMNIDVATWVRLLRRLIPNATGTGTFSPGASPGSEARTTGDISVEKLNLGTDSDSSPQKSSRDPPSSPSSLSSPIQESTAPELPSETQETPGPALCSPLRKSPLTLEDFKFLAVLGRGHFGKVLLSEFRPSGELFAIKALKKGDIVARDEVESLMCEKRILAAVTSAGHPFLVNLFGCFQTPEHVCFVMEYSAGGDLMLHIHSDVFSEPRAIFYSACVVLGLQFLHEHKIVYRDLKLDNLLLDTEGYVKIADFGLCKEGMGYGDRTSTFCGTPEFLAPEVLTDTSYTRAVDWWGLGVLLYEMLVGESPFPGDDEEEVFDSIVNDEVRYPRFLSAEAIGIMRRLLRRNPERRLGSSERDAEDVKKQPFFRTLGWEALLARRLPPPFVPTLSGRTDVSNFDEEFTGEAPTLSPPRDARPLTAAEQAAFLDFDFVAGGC
T5 sequence (Q00537 whole entry): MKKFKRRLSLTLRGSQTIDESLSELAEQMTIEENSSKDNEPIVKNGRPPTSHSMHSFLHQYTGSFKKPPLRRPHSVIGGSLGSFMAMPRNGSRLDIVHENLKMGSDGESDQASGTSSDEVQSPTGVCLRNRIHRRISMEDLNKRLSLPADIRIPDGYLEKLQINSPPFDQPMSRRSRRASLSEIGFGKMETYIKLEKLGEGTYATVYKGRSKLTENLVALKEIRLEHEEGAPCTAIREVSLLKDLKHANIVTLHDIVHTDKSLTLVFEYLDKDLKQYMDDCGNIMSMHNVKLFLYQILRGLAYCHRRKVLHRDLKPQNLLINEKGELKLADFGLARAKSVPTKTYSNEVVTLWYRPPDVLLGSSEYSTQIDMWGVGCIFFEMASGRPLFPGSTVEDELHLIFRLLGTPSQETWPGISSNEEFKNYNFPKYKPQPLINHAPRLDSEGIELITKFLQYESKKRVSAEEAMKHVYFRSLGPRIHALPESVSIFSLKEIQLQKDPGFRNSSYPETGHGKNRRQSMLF
T3 sequence (P00533 with tags, fused parts or gaps DEL752-759 limits assumed): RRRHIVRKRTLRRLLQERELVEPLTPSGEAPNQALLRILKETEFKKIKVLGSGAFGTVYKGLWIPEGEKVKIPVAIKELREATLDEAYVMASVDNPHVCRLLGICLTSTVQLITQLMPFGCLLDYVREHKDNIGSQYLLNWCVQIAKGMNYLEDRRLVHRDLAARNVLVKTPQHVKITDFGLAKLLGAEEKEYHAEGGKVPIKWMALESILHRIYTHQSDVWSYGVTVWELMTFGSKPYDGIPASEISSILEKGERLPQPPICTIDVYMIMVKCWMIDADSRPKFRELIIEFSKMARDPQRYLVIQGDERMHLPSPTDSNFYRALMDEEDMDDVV

SMILES	remaining binding at 1 µM [1] [%]	remaining binding at 1 µM (CDC2L2) [%]	remaining binding at 1 µM (EGFR(S752-I759del)) [%]	remaining binding at 1 µM (LATS1) [%]	remaining binding at 1 µM (PCTK2) [%]	remaining binding at 1 µM (PKN1) [%]	remaining binding at 1 µM (PRKCE) [%]	remaining binding at 1 µM (YSK1) [%]	inhibition at 1 µM (PCTK2; read-out: Probe binding inhibited, 1 μM) [%]
Clc1cc(NCC2CC2)c2ncc(-c3ccc4[nH]ncc4c3)n2n1 [compound 2, 6-Chloro-N-(cyclopropylmethyl)-3-(1H-indazol-5-yl)imidazo[1,2-b]pyridazin-8-amine]	93	100	94	82	98	100	100	92	
O=C(CN1CCOCC1)N[C@H]1CC[C@H](Nc2cc(Cl)nn3c(-c4ccc5[nH]ncc5c4)cnc23)CC1 [compound 26]	48	99	95	82	66	71	96	100	
CN1CCC(CNc2cc(Cl)nn3c(-c4cc5nc(Nc6ccccc6)[nH]c5cc4F)cnc23)CC1 [compound 31, 6-Chloro-3-(6-fluoro-2-(phenylamino)-1H-benzo[d]imidazol-5-yl)-N-((1-methylpiperidin-4-yl)methyl)imidazo[1,2-b]pyridazin-8-amine]	64	90	97	86	2.7	91	86	99	97
